{"source": "patent US9579381B2", "about": "(priority 2012, dated 2017)", "key": {"[1]": {"test_system": "M. turberculosis Dormancy Regulon", "details": "Kumar et al., cited from earlier work"}, "[2]": {"test_system": "dos regulon genes (dosR, dosS, fdxA)", "format": "cell-based", "details": "Mtb H37Rv treated for 4 hours; Real time PCR"}, "KatG": {"target": "KatG (Mycobacterium tuberculosis, UniProt P9WIE5)", "sequence (P9WIE5 whole entry)": "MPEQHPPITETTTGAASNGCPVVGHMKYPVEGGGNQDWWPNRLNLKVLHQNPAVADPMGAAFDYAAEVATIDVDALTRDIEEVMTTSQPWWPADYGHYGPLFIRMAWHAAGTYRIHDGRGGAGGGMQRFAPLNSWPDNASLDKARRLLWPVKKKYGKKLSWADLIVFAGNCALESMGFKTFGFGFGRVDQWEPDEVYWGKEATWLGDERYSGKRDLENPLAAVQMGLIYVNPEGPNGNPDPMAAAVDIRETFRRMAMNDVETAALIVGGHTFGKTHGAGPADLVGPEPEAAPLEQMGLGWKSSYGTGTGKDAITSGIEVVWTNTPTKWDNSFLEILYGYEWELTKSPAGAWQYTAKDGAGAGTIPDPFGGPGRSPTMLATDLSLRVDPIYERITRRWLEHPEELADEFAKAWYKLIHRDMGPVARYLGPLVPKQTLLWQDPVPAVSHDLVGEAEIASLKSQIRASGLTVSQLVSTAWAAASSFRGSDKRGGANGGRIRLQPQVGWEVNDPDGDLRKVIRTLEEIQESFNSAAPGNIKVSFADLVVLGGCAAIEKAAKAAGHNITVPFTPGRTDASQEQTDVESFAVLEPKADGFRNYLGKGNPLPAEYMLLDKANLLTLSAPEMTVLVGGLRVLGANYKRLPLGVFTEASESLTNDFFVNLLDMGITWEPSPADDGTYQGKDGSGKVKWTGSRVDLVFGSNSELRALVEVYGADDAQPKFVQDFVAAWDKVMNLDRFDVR", "assay": "CO detection: KatG/tBHP activation, CO trapped by deoxyMyoglobin (MbCO, absorbance 540 nm)", "format": "biochemical"}, "[3]": {"test_system": "dos regulon genes (dosR, dosS, fdxA)", "format": "cell-based, M. bovis BCG"}}, "note": "Read-outs that look alike come from different tables or passages of the source.", "data": [{"smiles": "[C-]#[O+]", "note": "[CO]", "values": [{"measurement": "+CO/−CO", "setting": "[1]; gene Rv0079", "value": 3.3}, {"measurement": "+CO/−CO", "setting": "[1]; gene Rv0080", "value": 2.9}, {"measurement": "+CO/−CO", "setting": "[1]; gene Rv0081", "value": 2.3}, {"measurement": "+CO/−CO", "setting": "[1]; gene Rv0669", "value": 6}, {"measurement": "+CO/−CO", "setting": "[1]; gene Rv0670 nroZ", "value": 3.2}, {"measurement": "+CO/−CO", "setting": "[1]; gene Rv0671", "value": 2.3}, {"measurement": "+CO/−CO", "setting": "[1]; gene Rv0672", "value": 2.8}, {"measurement": "+CO/−CO", "setting": "[1]; gene Rv0673 pncB2", "value": 1.5}, {"measurement": "+CO/−CO", "setting": "[1]; gene Rv0674", "value": 1.7}, {"measurement": "+CO/−CO", "setting": "[1]; gene Rv1733", "value": 2.3}, {"measurement": "+CO/−CO", "setting": "[1]; gene Rv1734", "value": 2}, {"measurement": "+CO/−CO", "setting": "[1]; gene Rv1735", "value": 1.6}, {"measurement": "+CO/−CO", "setting": "[1]; gene Rv1736 narX", "value": 2.4}, {"measurement": "+CO/−CO", "setting": "[1]; gene Rv1737 narK2", "value": 2.1}, {"measurement": "+CO/−CO", "setting": "[1]; gene Rv1738", "value": 5.8}, {"measurement": "+CO/−CO", "setting": "[1]; gene Rv1812", "value": 1.9}, {"measurement": "+CO/−CO", "setting": "[1]; gene Rv1813", "value": 5.1}, {"measurement": "+CO/−CO", "setting": "[1]; gene Rv1996", "value": 2.4}, {"measurement": "+CO/−CO", "setting": "[1]; gene Rv1997 ctpF", "value": 6.8}, {"measurement": "+CO/−CO", "setting": "[1]; gene Rv2003", "value": 3.3}, {"measurement": "+CO/−CO", "setting": "[1]; gene Rv2004", "value": 4.8}, {"measurement": "+CO/−CO", "setting": "[1]; gene Rv2005", "value": 6.7}, {"measurement": "+CO/−CO", "setting": "[1]; gene Rv2006 otsB1", "value": 2.6}, {"measurement": "+CO/−CO", "setting": "[1]; gene Rv2007 foxA", "value": 7.1}, {"measurement": "+CO/−CO", "setting": "[1]; gene Rv2028", "value": 1.9}, {"measurement": "+CO/−CO", "setting": "[1]; gene Rv2029 pkfB", "value": 6.6}, {"measurement": "+CO/−CO", "setting": "[1]; gene Rv2030", "value": 9.2}, {"measurement": "+CO/−CO", "setting": "[1]; gene Rv2031 hsoX (acr)", "value": 5.2}, {"measurement": "+CO/−CO", "setting": "[1]; gene Rv2032 acg", "value": 8.4}, {"measurement": "+CO/−CO", "setting": "[1]; gene Rv2823 TB31.7", "value": 6.8}, {"measurement": "+CO/−CO", "setting": "[1]; gene Rv2824", "value": 7.1}, {"measurement": "+CO/−CO", "setting": "[1]; gene Rv2825", "value": 2.2}, {"measurement": "+CO/−CO", "setting": "[1]; gene Rv2826 hrp1", "value": 10}, {"measurement": "+CO/−CO", "setting": "[1]; gene Rv2827", "value": 4.2}, {"measurement": "+CO/−CO", "setting": "[1]; gene Rv2828", "value": 6.8}, {"measurement": "+CO/−CO", "setting": "[1]; gene Rv2829", "value": 2.6}, {"measurement": "+CO/−CO", "setting": "[1]; gene Rv2830", "value": 5.2}, {"measurement": "+CO/−CO", "setting": "[1]; gene Rv2831", "value": 2.7}, {"measurement": "+CO/−CO", "setting": "[1]; gene Rv3126", "value": 1.8}, {"measurement": "+CO/−CO", "setting": "[1]; gene Rv3127", "value": 2.7}, {"measurement": "+CO/−CO", "setting": "[1]; gene Rv3130 tgs1", "value": 11}, {"measurement": "+CO/−CO", "setting": "[1]; gene Rv3131", "value": 3.3}, {"measurement": "+CO/−CO", "setting": "[1]; gene Rv3132 dos8 (devS)", "value": 3.1}, {"measurement": "+CO/−CO", "setting": "[1]; gene Rv3133 dosR (devR)", "value": 3}, {"measurement": "+CO/−CO", "setting": "[1]; gene Rv3134", "value": 7.1}]}, {"smiles": "NNC(=O)c1ccncc1", "note": "[INH, Isoniazid]", "values": [{"measurement": "expression of dos regulon genes (dosR, dosS, fdxA)", "setting": "[2]", "value": "significantly increased"}, {"measurement": "CO produced from activated compound", "setting": "KatG", "value": "dependent upon dose, time, and KatG"}, {"measurement": "expression of dos regulon genes (dosR, dosS, fdxA)", "setting": "[3]", "value": "significantly increased"}]}, {"smiles": "NC(=O)c1ccc[n+]([C@@H]2O[C@H](COP(=O)([O-])OP(=O)(O)OC[C@H]3O[C@@H](n4cnc5c(N)ncnc54)[C@H](O)[C@@H]3O)[C@@H](O)[C@H]2O)c1", "note": "[NAD+, NAD]", "values": [{"measurement": "formation of MbCO (CO-Mb)", "setting": "KatG; various dosages, Kat G 22.44 μg per reaction, 1 mM tBHP", "value": "inhibited"}]}]}
